pIC50: −log10 of the molar value.
Assay: Inhibition of C-KIT V654A/560-576 deletion mutant in human GIST-430/654 cells assessed as reduction in c-Kit autophosphorylation at […] residue incubated for 45 mins by Luminex bead based assay
Type: cell-based
Conditions: GIST-430/654, 0.75 h

Point of comparison: `Cn1ncc(-c2ccc(CNc3cc(-c4cnc5cc(OCCN6CC7(COC7)C6)ccn45)ncn3)cc2)n1`, pIC50 7.40. Against it:
- Cn1ncc(-c2ccc(CNc3cc(-c4cnc5cc(OCCCN6CCCC6)ccn45)ncn3)cc2)n1 — within 0.2 log units, 7.35
- Cn1cc(-c2ccc(CNc3cc(-c4cnc5cc(OC6CCOC6)ccn45)ncn3)cc2)cn1 (configuration not stated) — 0.83 log units lower, 6.57
- c1ccn2c(-c3cc(NCc4ccc(-n5cccn5)cc4)ncn3)cnc2c1 — 0.68 log units lower, 6.72
- COc1ccn2c(-c3cc(NCc4ccc(-c5cnn(C)n5)cc4)ncn3)cnc2c1 — 0.29 log units lower, 7.11
- Cn1cc(-c2ccc(CNc3cc(-c4cnc5cc(CCN6CCN(C7COC7)CC6)ccn45)ncn3)cc2)cn1 — 0.92 log units lower, 6.48
- CNC1CN(c2ccn3c(-c4cc(NCc5ccc(-c6cnn(C)c6)cc5)ncn4)cnc3c2)C1 — 0.55 log units lower, 6.85
- Cc1nc(-c2ccc(CNc3cc(-c4cnc5cc(OCCO)ccn45)ncn3)cc2)co1 — 0.27 log units lower, 7.13
- COCCN1CCC(COc2ccn3c(-c4cc(NCc5ccc(-c6cnn(C)n6)cc5)ncn4)cnc3c2)CC1 — within 0.2 log units, 7.41
- COc1ccn2c(-c3cc(NCc4ccc(-c5cnn(C)c5)cc4)ncn3)cnc2c1 — within 0.2 log units, 7.26
- CN1CC(COc2ccn3c(-c4cc(NCc5ccc(-c6cnn(C)c6)cc5)ncn4)cnc3c2)C1 — within 0.2 log units, 7.21
- Cn1cc(-c2ccc(CNc3cc(-c4cnc5cc(OCCN6CCC[C@@H]7OCC[C@@H]76)ccn45)ncn3)cc2)cn1 — 0.40 log units lower, 7.00
